# Test results from patent US12649734B2, “Bioavailable protein disulfide isomerase inhibitors” (THE CLEVELAND CLINIC FOUNDATION, priority 2020, dated 2026).
# Legend:
# [1] = system: BTZ-resistant MM1.S cells; experiment: Cell viability assay, BTZ-resistant MM1.S; type: cell-based, human
# Protocol: Cells and reagents: MM1.S-luc-BTZ (BTZ®)-resistant cell line was made in our laboratory. Starting with 1 nM concentration, MM1.S-luc cells were treated with BTZ and exposed continuously for 5 days and removed for 2 days before re-exposure to the drug until the growth of the cells mimicked the parental cell line. Incremental increase of the drug was applied until the concentration of 8 nM was reached. […] BTZ was procured from Millennium Pharmaceuticals Inc. All cell lines that are used in this study and their detailed information are shown in table 1 below.
# Cell viability assay: Cell viability was measured in 96 well culture plates (2×10^4 cells/well) using CellTiter-Glo® Luminescent Cell Viability Assay (Promega, Madison, WI, USA) according to the manufacturer's protocol.
# 5TGM1-luc myeloma cells = experiment: 5TGM1-luc/C57BL/KaLwRij syngeneic mouse model of myeloma; type: in vivo
# Protocol: FIGS. 8A & 8B provide graphs showing the stability of CCF642-34 and restriction of multiple myeloma in a syngeneic mouse model by PDIA1-inhibitor CCF642-34. (A) The stability of CCF642-34 was measured against oxidative metabolism by human liver microsomes. CCF642-34 (20 μM) was incubated with 0.25 mg/mL of human liver microsomes for 5 h. The residual compound at indicated time points was measured by HPLC (Agilent 1260 Infinity II) interfaced with reverse phase C18 column using 280 nm and 245 nm detection wavelength. The standard curve of known concentrations of CCF642-34 was obtained from the area under the peak at two wavelengths, and the remaining CCF642-34 was estimated. Data are representative of two independent experiments. (B) 5TGM1-luc/C57BL/KaLwRij mouse models of myeloma (3 males, 3 females per treatment group) were engrafted with 2×10^6 5TGM1-luc cells via tail vein injection and treated 3 times a week for 8 weeks per oral gavage with 20 mg/kg of CCF642-34 dissolved in 10% 2-hydroxy-propyl-o-cyclodextrin. The survival of each group was monitored, and Kaplan-Meier survival analysis was performed. All control animals required euthanasia before 52 days (due to paraparesis, weight loss, poor general condition), while 3 out of 6 mice treated with CCF642-34 lived beyond 6 months with no sign of disease.
# Mouse experiment: Animal care and procedures were conducted in accordance with institutional guidelines approved by the Institutional Animal Care and Use Committee (IACUC). […]
# To evaluate whether CCF642-34 achieved anti-myeloma efficacy after oral administration in vivo we used the 5TGM1-luc/C57BL/KaLwRij syngeneic mouse model. […] Mouse weight was monitored along with systemic symptoms of distress or disease. […] The intensity of luminescence was not good enough for the detection of bioluminescence, which is a common issue in the imaging of B57 black 6 mice. Therefore, the inventors primarily monitored the survival, and the disease burden was determined in the bone marrow cells at the time of sacrifice of a moribund mice. […]
# PDIA1 = PDIA1 (Homo sapiens, UniProt P07237); experiment: PDIA1 activity assay, insulin reduction; type: biochemical; parameters: His6 (6xHN, pET6xHN-N vector) (N); made in house; host or cells: Escherichia coli BL21 (DE3) NiCo; conditions: read-out: inactivation constant, Kinact for PDIA1
# Protocol: PDI activity: All PDI activity assays were performed using two different substrates, insulin and di-eosin-diglutathione (di-E-GSSG) as described earlier (Vatolin et al., Ibid) with brief modifications. PDIA1 (1 μM) was incubated for 1 h with varying concentrations of PDIA1 inhibitors 642 or 642-34 (0.1, 03, 1, 5, 10, or 20 μM) in 100 mM sodium phosphate pH 7.0, 2 mM EDTA, and 1% DMSO. Bovine insulin (100 μM) and DTT (1 mM) were added to initiate the reaction. Kinetic readings were taken every minute for 2 h at 650 nm absorbance using a BioTek Synergy plate reader (BioTek Instruments, Inc., Winooski, VT, USA). For highly sensitive fluorescence-based assays, di-E-GSSG as a pseudo substrate was utilized to access the activity of PDIA1. Raturi, A.; Mutus, B., Free. Radic. Biol. Med., 43, 62-70 (2007) Known concentrations of recombinant PDIA1 were mixed with 10 mM GSH and incubated at 37° C. for 30 min in 150 mM K2HPO4/KH2PO4 (pH 7.1) buffer solution. PDI inhibitor was added into the mixture and incubated for an additional 30 min at 37° C. […] Synergy H1 plate reader (BioTek, WI, USA) was used for kinetic analysis using excitation at 518 nm, emission at 545 nm, reads of 0.1 sec/well every minute at 25° C. for 1 h. Baseline fluorescence was determined from di-E-GSSG reactions without PDI and GSH. […]
# [2] = 20 mg/kg oral gavage 3 times a week for 8 weeks
# Chain of PDIA1 (P07237 18-508): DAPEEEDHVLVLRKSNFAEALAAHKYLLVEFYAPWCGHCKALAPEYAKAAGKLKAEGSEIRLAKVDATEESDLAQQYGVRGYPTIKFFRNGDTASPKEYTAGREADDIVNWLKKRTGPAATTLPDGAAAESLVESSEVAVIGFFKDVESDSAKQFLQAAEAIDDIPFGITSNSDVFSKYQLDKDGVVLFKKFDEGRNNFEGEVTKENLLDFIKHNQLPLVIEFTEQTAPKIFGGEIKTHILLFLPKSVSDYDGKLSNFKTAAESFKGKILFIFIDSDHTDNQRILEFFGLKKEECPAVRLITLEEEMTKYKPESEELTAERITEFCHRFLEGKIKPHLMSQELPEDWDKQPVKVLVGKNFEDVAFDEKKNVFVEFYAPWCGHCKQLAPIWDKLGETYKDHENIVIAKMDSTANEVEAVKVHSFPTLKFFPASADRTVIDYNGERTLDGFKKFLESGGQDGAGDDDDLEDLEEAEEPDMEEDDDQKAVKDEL
compound,measurement,setting,value
NC(CC1CNc2ccccc21)C(=O)NCCCOc1ccc(N2C(=O)/C(=C/c3ccc([N+](=O)[O-])s3)SC2=S)cc1 (centres unmarked) [CCF642-34],sensitivity of BTZ-resistant MM1.S compared to parental BTZ-naive MM1.S,[1],~2 fold
same,mice living beyond 6 months with no sign of disease,5TGM1-luc myeloma cells; [2],3 out of 6
same,mice living beyond 180 days with no sign of disease,5TGM1-luc myeloma cells; [2],3 out of 6
same,adverse events as assessed by weight and animal behavior,"5TGM1-luc myeloma cells; oral treatment, 8 weeks",no obvious adverse events
same,KI (inactivation),PDIA1,0.1 ± 0.0085 µM
